Results from the supplement of paper PMC5579334.
± gives the standard deviation of the averaged measurements.

Assays:
HS-PSS [1] = experiment: drug sensitivity score (DSS, CellTiter-Glo viability, 72 h) (DSS (dimensionless)); higher = more sensitive; extreme values may be limits of the assay
In short: (§1)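 For this screen, 384-well plates were preprinted with each compound at five concentrations in 10-fold steps and seeded with MPNST cell lines or primary human Schwann cells at 750–1000 cells per well. Incubation lasted 72 h at 37 °C, 5% CO2, and CellTiter-Glo ATP luminescence, scaled between vehicle and positive-control wells and averaged over duplicates where available, served as viability. Logistic fits with four parameters were applied. Relative IC50 (censored at the top concentration) and drug sensitivity score derive from these fits, and percent inhibition is at the top concentration.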

HS-Sch-2 [2] = experiment: as above
In short: as §1

[3] = tested on: HSC1 (primary human Schwann cells); experiment: as above
In short: as §1

[4] = tested on: HSC2 (primary human Schwann cells); experiment: as above
In short: as §1

S1507-2 [5] = experiment: as above
In short: as §1

S462 [6] = experiment: as above
In short: as §1

ST8814 [7] = experiment: as above
In short: as §1

STS26T [8] = experiment: as above
In short: as §1

YST-1 [9] = experiment: as above
In short: as §1

HS-PSS [10] = experiment: drug sensitivity score (DSS, CellTox-Green cytotoxicity, 72 h) (DSS (dimensionless)); higher = more cytotoxic; extreme values may be limits of the assay
In short: (§2)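 MPNST cell lines and primary human Schwann cells were grown for 72 h at 37 °C in 384-well plates containing five 10-fold compound dilutions. CellTox-Green, added before seeding at a final 1:1000 dilution, gave fluorescence from DNA released by disrupted cells, and signals were scaled to vehicle and positive-control wells. Curves were fitted with a four-parameter logistic model. Drug sensitivity score and relative IC50 come from these fits, with IC50 censored at the top concentration.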

[11] = tested on: HSC1 (primary human Schwann cells); experiment: as above
In short: as §2

[12] = tested on: HSC2 (primary human Schwann cells); experiment: as above
In short: as §2

S1507-2 [13] = experiment: as above
In short: as §2

ST8814 [14] = experiment: as above
In short: as §2

STS26T [15] = experiment: as above
In short: as §2

HS-PSS [16] = experiment: % inhibition of CellTiter-Glo viability at highest tested concentration (72 h), relative to DMSO and benzethonium chloride controls; higher = more inhibition
In short: as §1

HS-Sch-2 [17] = experiment: as above
In short: as §1

[18] = tested on: HSC1 (primary human Schwann cells); experiment: as above
In short: as §1

[19] = tested on: HSC2 (primary human Schwann cells); experiment: as above
In short: as §1

S1507-2 [20] = experiment: as above
In short: as §1

S462 [21] = experiment: as above
In short: as §1

ST8814 [22] = experiment: as above
In short: as §1

STS26T [23] = experiment: as above
In short: as §1

YST-1 [24] = experiment: as above
In short: as §1

Row | Compound | drug sensitivity score (HS-PSS [1]) | drug sensitivity score (HS-Sch-2 [2]) | drug sensitivity score [3] | drug sensitivity score [4] | drug sensitivity score (S1507-2 [5]) | drug sensitivity score (S462 [6]) | drug sensitivity score (ST8814 [7]) | drug sensitivity score (STS26T [8]) | drug sensitivity score (YST-1 [9]) | drug sensitivity score (HS-PSS [10]) | drug sensitivity score [11] | drug sensitivity score [12] | drug sensitivity score (S1507-2 [13]) | drug sensitivity score (ST8814 [14]) | drug sensitivity score (STS26T [15]) | % inhibition (HS-PSS [16]) | % inhibition (HS-Sch-2 [17]) | % inhibition [18] | % inhibition [19] | % inhibition (S1507-2 [20]) | % inhibition (S462 [21]) | % inhibition (ST8814 [22]) | % inhibition (STS26T [23]) | % inhibition (YST-1 [24])
1 | CC(C)C[C@H](NC(=O)[C@@H](COC(C)(C)C)NC(=O)[C@H](Cc1ccc(O)cc1)NC(=O)[C@H](CO)NC(=O)[C@H](Cc1c[nH]c2ccccc12)NC(=O)[C@H](Cc1cnc[nH]1)NC(=O)[C@@H]1CCC(=O)N1)C(=O)N[C@@H](CCCNC(=N)N)C(=O)N1CCC[C@H]1C(=O)NNC(N)=O [Goserelin] (max concentration tested 10000 nM) | 0 | 0.06 | 0 | 0 | 0 | 0 | 0 | 0 | 0 | 0 | 0 | 0 | 0.454 ± 0.64 | 0 | 0 | -4.24% | 11.2% | 6.11% | -4.29% | -0.69 ± 5% | 0.735 ± 5% | 4.22% | 7.86% | -0.8%
2 | C[C@@H](C(=O)O)c1ccc(-c2ccccc2)c(F)c1 [Tarenflurbil] (max concentration tested 10000 nM) | 0 | 0 | 0 | 0 | 0 | 0 | 0 | 0 | 0 | 0 | 0 | 0 | 0.283 ± 0.4 | 0 | 0 | -1.84% | -4.22% | 1.66% | -6.06% | -1.93 ± 0.15% | -5.38 ± 11% | -0.223% | -0.273% | -2.65%
3 | Nc1ncn([C@@H]2O[C@H](CO)[C@@H](O)[C@H]2O)c(=O)n1 [Azacitidine] (max concentration tested 10000 nM) | 0.1 | 0 | 5.39 | 3.59 | 0 | 2.02 ± 0.98 | 0.0452 | 1.02 | 0.39 | 0 | 0 | 0 | 2.61 ± 3.7 | 0 | 0 | 15.6% | 10.9% | 75.2% | 68.2% | 3.07 ± 2.9% | 34.5 ± 9.2% | 12.4% | 29.9% | 22.1%
4 | O=C(c1ccc(C(=O)N2CCC(N3CCCC3)CC2)c(Nc2ccccc2)c1)N1CCC(N2CCCC2)CC1 [UNC1215] (max concentration tested 30000 nM) | 0.73 | 0.38 | 0 | 0 | 0 | 0 | 0.198 | 0 | 0 | 0 | 0 | 0 | 0 | 0 | 0 | 20.4% | 15.2% | 8.9% | 5.83% | 5.34 ± 1.7% | 2.34 ± 0.36% | 13.9% | 3.37% | -5.53%
5 | COc1cc(Nc2ncc(F)c(Nc3ccc4c(n3)NC(=O)C(C)(C)O4)n2)cc(OC)c1OC [Tamatinib] (max concentration tested 10000 nM) | 0 | 0.4 | 5.11 | 3.08 | 0 | 0 | 0.365 | 0.0251 | 0 | 0 | 0 | 0.0662 | 0.0129 ± 0.018 | 0.113 | 0.558 | 9.72% | 13.4% | 37.9% | 36.1% | -0.148 ± 3.2% | 4.27 ± 6.2% | 11.9% | 10.2% | -0.14%
6 | Nc1ccccc1NC(=O)c1ccc(CNc2nccc(-c3cccnc3)n2)cc1 [Mocetinostat] (max concentration tested 10000 nM) | 6.61 | 9.89 | 9.63 | 10.5 | 8.06 ± 0.65 | 15.4 ± 0.54 | 8.59 | 8.68 | 15 | 4.26 | 4.7 | 6.39 | 5.36 ± 2.5 | 5.01 | 6.23 | 88% | 101% | 83.9% | 87.2% | 95.338 ± 0.088% | 94.19 ± 0.4% | 93.5% | 87.5% | 100%
7 | CC[C@@H]1C(=O)N(C)c2cnc(Nc3ccc(C(=O)NC4CCN(C)CC4)cc3OC)nc2N1C1CCCC1 [BI 2536] (max concentration tested 1000 nM) | 15 | 24.5 | 13.3 | 17.4 | 19.5 ± 0.21 | 28.42 ± 0.2 | 22.1 | 29.6 | 20.5 | 0.25 | 11.3 | 20.1 | 15.6 ± 0.4 | 19.5 | 32.3 | 61% | 66.8% | 62.9% | 79.4% | 86.7 ± 3% | 101.6 ± 0.24% | 84.1% | 75.9% | 54.1%
8 | Clc1ccc(Nc2nnc(Cc3ccncc3)c3ccccc23)cc1 [Vatalanib] (max concentration tested 10000 nM) | 0 | 1.77 | 0 | 0.0903 | 0 | 0 | 0 | 0 | 1.52 | 0 | 0 | 0 | 0 | 0 | 0 | 11.8% | 12.3% | 5.92% | 13.4% | 2.66 ± 4.9% | 5.29 ± 6.4% | 1.01% | 6.33% | 10.3%
9 | COc1cc([C@@H]2c3cc4c(cc3[C@@H](O[C@@H]3O[C@@H]5CO[C@@H](C)O[C@H]5[C@H](O)[C@H]3O)[C@H]3COC(=O)[C@H]23)OCO4)cc(OC)c1O [Etoposide] (max concentration tested 10000 nM) | 3.08 | 8.86 | 7.17 | 11.2 | 5.59 ± 0.81 | 11.55 ± 0.037 | 5.79 | 7.33 | 14.5 | 0 | 2.21 | 3.62 | 1.82 ± 2.4 | 3.52 | 5.16 | 33% | 79.1% | 57.3% | 63.6% | 59.8 ± 1% | 90.4 ± 2.4% | 70.7% | 68% | 73.5%
10 | C[C@]12CC[C@H](O)CC1=CC[C@@H]1[C@@H]2CC[C@]2(C)C(c3cccnc3)=CC[C@@H]12 [Abiraterone] (max concentration tested 5000 nM) | 0 | 0 | 0.394 | 1.01 | 1.83 ± 2 | 0.775 ± 0.16 | 0 | 0 | 0 | 0 | 0 | 0 | 0.133 ± 0.19 | 0 | 0 | -3.84% | 3.26% | 12.6% | 18.7% | 17.1 ± 2.1% | 7.79 ± 0.37% | 4.42% | 3.38% | 5.69%
11 | CC(C)C[C@H](NC(=O)[C@H](Cc1ccccc1)NC(=O)c1cnccn1)B(O)O [Bortezomib] (max concentration tested 1000 nM) | 14.4 | 30 | 25.6 | 25.7 | 24.458 ± 0.016 | 27.4 ± 0.87 | 26.3 | 23.7 | 24.2 | 7.75 | 19.8 | 20.1 | 30.1 ± 4.9 | 24.3 | 23.5 | 93.5% | 101% | 101% | 102% | 103.6 ± 0.17% | 102.5 ± 0.77% | 103% | 102% | 100%
12 | CO[C@H]1C[C@@H]2CC[C@@H](C)[C@@](O)(O2)C(=O)C(=O)N2CCCC[C@H]2C(=O)O[C@H]([C@H](C)C[C@@H]2CC[C@@H](O)[C@H](OC)C2)CC(=O)[C@H](C)/C=C(\C)[C@@H](O)[C@@H](OC)C(=O)[C@H](C)C[C@H](C)/C=C/C=C/C=C/1C [Sirolimus] (max concentration tested 100 nM) | 4.11 | 3.47 | 0.673 | 1.62 | 0.128 ± 0.18 | 0 | 0.411 | 1.7 | 6.14 | 0 | 0 | 0 | 0.0997 ± 0.14 | 0 | 0 | 32.9% | 29.1% | 24.6% | 23.2% | 5.52 ± 9% | 1.96 ± 4.9% | 14.7% | 27.9% | 45.1%
